Results: patent US20140200241A1, “PRODRUGS FOR TREATING MICROBIAL INFECTIONS” (Northeastern University, priority 2011, published 2014)
Converted amounts (≈) assume the structure as drawn. Where two headings read alike, the source gives them in different places.

What was measured:
Staphylococcus aureus [1] = assay: microbe, parasite or virus in culture; conditions: for MIC: S. aureus
Pseudomonas aeruginosa [2] = assay: microbe, parasite or virus in culture
HepG2 [3] = conditions: human
Caco-2 [4] = assay: cells; conditions: Homo sapiens
Acinetobacter baumannii [5] = conditions: human
Escherichia coli [6] = conditions: human
Salmonella typhimurium = assay: MIC against Salmonella typhimurium; type: cell-based; conditions: Salmonella enterica
Fadu [7] = assay: cells; conditions: Homo sapiens
MRSA = MRSA infection in C. elegans; type: in vivo
IMR90 [8] = assay: cells; conditions: Homo sapiens, IMR-90
Staphylococcus aureus [9] = conditions: for TI: human
Pseudomonas aeruginosa [10] = conditions: human
in vitro = conditions: human
Bacillus anthracis [11] = assay: microbe, parasite or virus in culture
E. coli ΔnfsA/ΔnfnB [12] = assay: microbe, parasite or virus in culture; conditions: Escherichia coli
Escherichia coli [13] = assay: microbe, parasite or virus in culture
Fadu [14] = conditions: human
E. coli ΔnfsA = assay: microbe, parasite or virus in culture; conditions: Escherichia coli
Enterococcus faecalis [15] = assay: microbe, parasite or virus in culture
Caco-2 [16] = conditions: human
HepG2 [17] = assay: cells; conditions: Homo sapiens
E. coli ΔnfnB = assay: microbe, parasite or virus in culture; conditions: Escherichia coli
Yersinia pestis [18] = assay: microbe, parasite or virus in culture; conditions: for MIC: Y. pestis (FL2, PD30: KIM)
IMR90 [19] = conditions: human
Enterococcus faecalis [20] = conditions: human
Acinetobacter baumannii [21] = assay: microbe, parasite or virus in culture
Yersinia pestis [22] = conditions: human fibroblast IC50 vs MIC, Y. pestis
E. coli ΔnfsA/ΔnfnB [23] = conditions: double mutant lacking both major nitroreductases vs wild type
Francisella tularensis [24] = conditions: human fibroblast IC50 vs MIC, F. tularensis
Bacillus anthracis [25] = conditions: human fibroblast IC50 vs MIC, B. anthracis
[26] = test system: E. coli long-chromosomal-deletion mutants; conditions: 50 μg/ml of prodrug
Francisella tularensis [27] = assay: microbe, parasite or virus in culture; conditions: for MIC: F. tularensis SchuS4
S. aureus = S. aureus mouse infection model; cited from earlier work
E. coli ΔybgJ = assay: microbe, parasite or virus in culture; conditions: Escherichia coli
E. coli ΔargC = assay: microbe, parasite or virus in culture; conditions: Escherichia coli

| Compound | MIC (Staphylococcus aureus [1]) | MIC (Pseudomonas aeruginosa [2]) | TI (HepG2 [3]) | IC50 (Caco-2 [4]) | TI (Acinetobacter baumannii [5]) | TI (Escherichia coli [6]) | IC50 (Fadu [7]) | IC50 (IMR90 [8]) | TI (Pseudomonas aeruginosa [10]) | IC50 (in vitro) | MBC (Bacillus anthracis [11]) | MIC (Bacillus anthracis [11]) | MIC (Escherichia coli [13]; read-out: MIC Against E. coli) | TI (Fadu [14]) | MIC (Enterococcus faecalis [15]) | IC50 (HepG2 [17]) | MIC (Yersinia pestis [18]) | TI (IMR90 [19]) | MIC (Acinetobacter baumannii [21]) | TI (Yersinia pestis [22]) | further results |
| --- | --- | --- | --- | --- | --- | --- | --- | --- | --- | --- | --- | --- | --- | --- | --- | --- | --- | --- | --- | --- | --- |
| O=[N+]([O-])c1ccc(/C=[N+](\[O-])CCO)o1 [FL1] | 1.56 µg/mL (≈ 7.79 µM) | 25 µg/mL (≈ 125 µM) | 40 | 200 µg/mL (≈ 999 µM) | 20 | 320 | 62.5 µg/mL (≈ 312 µM) | 250 µg/mL (≈ 1250 µM) | 10 | 250 µg/mL (≈ 1250 µM) | 0.78 µg/mL (≈ 3.9 µM) | 0.35 µg/mL (≈ 1.75 µM) | 0.78 µg/mL (≈ 3.9 µM) | 80 | 3.12 µg/mL (≈ 15.6 µM) | 31.2 µg/mL (≈ 156 µM) | ≤ 0.78 µg/mL | 320 | 12.5 µg/mL (≈ 62.5 µM) | ≧320 | MBC (Staphylococcus aureus [1]): 3.25 µg/mL (≈ 16.2 µM); MIC (Salmonella typhimurium): 5 µg/mL (≈ 25 µM); in vivo efficacy (MRSA): in vivo efficacy against a MRSA infection in C. elegans; TI (Staphylococcus aureus [9]): 160; MIC (E. coli ΔnfsA/ΔnfnB [12]): 12.5 µg/mL (≈ 62.5 µM); MBC (Escherichia coli [13]): 0.78 µg/mL (≈ 3.9 µM); MIC (Escherichia coli [13]): 0.78 µg/mL (≈ 3.9 µM); MIC (E. coli ΔnfsA): 2.5 µg/mL (≈ 12.5 µM); TI (Caco-2 [16]): 256; MIC (E. coli ΔnfnB): 0.16 µg/mL (≈ 0.799 µM); TI (Enterococcus faecalis [20]): 80; Hemolytic activity (Sheep's red blood cells): no hemolytic activity; decrease of activity (E. coli ΔnfsA/ΔnfnB [23]): 16 fold |
| Oc1c(Br)cc(Br)c2cccnc12 [FL2] | ≤ 1.5 µg/mL | > 50 µg/mL | 42 | – | 16 | 67 | 31.2 µg/mL (≈ 103 µM) | 100 µg/mL (≈ 330 µM) | >2 | 100 µg/mL (≈ 330 µM) | > 50 µg/mL | 1.5 µg/mL (≈ 4.95 µM) | 1.5 µg/mL (≈ 4.95 µM) | 21 | 3.25 µg/mL (≈ 10.7 µM) | 62.5 µg/mL (≈ 206 µM) | 1.5 µg/mL (≈ 4.95 µM) | 67 | 6.25 µg/mL (≈ 20.6 µM) | 67 | TI (Francisella tularensis [24]): 1,031; TI (Bacillus anthracis [25]): 67; MBC (Escherichia coli [13]): 3 µg/mL (≈ 9.9 µM); Resistance (growth in presence of prodrug) [26]: observed in a large number of deletions; MBC (Yersinia pestis [18]): 12.5 to 25 µg/mL (≈ 41.3 to 82.5 µM); MBC (Francisella tularensis [27]): 1.5 to 3.12 µg/mL (≈ 4.95 to 10.3 µM); MIC (Francisella tularensis [27]): 0.097 µg/mL (≈ 0.32 µM) |
| COc1ccccc1NC(=O)Nc1ccc2ccccc2c1 [INF271] | – | – | – | – | – | – | – | – | – | – | – | – | – | – | – | – | – | – | – | – | efficacy (S. aureus): shows efficacy in a S. aureus mouse infection model |
| O=C(/C=C(\O)C(F)(F)F)c1ccc(Cl)cc1 [PD30] | 3.12 µg/mL (≈ 12.5 µM) | > 50 µg/mL | 10 | 200 µg/mL (≈ 798 µM) | 20 | 40 | 62.5 µg/mL (≈ 249 µM) | 250 µg/mL (≈ 998 µM) | >2 | 250 µg/mL (≈ 998 µM) | > 50 µg/mL | 0.78 µg/mL (≈ 3.11 µM) | 6.25 µg/mL (≈ 24.9 µM) | 10 | 6.25 µg/mL (≈ 24.9 µM) | 62.5 µg/mL (≈ 249 µM) | 0.78 µg/mL (≈ 3.11 µM) | 40 | 12.5 µg/mL (≈ 49.9 µM) | 320 | TI (Francisella tularensis [24]): 1,282; MIC (Staphylococcus aureus [9]; S. aureus): 3.12 µg/mL (≈ 12.4 µM); TI (Staphylococcus aureus [9]): 80; TI (Bacillus anthracis [25]): 320; TI (Caco-2 [16]): 32; MIC (E. coli ΔybgJ): 100 µg/mL (≈ 399 µM); MBC (Yersinia pestis [18]): 3.12 to 6.25 µg/mL (≈ 12.4 to 24.9 µM); TI (Enterococcus faecalis [20]): 40; MBC (Francisella tularensis [27]): 0.78 to 1.5 µg/mL (≈ 3.11 to 5.99 µM); MIC (Francisella tularensis [27]): 0.195 µg/mL (≈ 0.778 µM); MIC (E. coli ΔargC): 50 µg/mL (≈ 200 µM); Hemolytic activity (Sheep's red blood cells): no hemolytic activity |
